Assay results as given in PubChem BioAssay AID228 (DTP/NCI, 2004).
“And” between values parts separate entries of the source, which are not always exact repeats. Identical values can stand only once. Inconclusive results are not listed.

Test system: BDF1 mice, Friend leukemia sc, tumor weight T/C
Test: NCI In Vivo Anticancer Drug Screen. Data for tumor model Friend Virus Leukemia (Solid) (subcutaneous) in B6D2F1 (BDF1) mice
Settings: endpoint: mean tumor weight, higher = larger tumour
Experimental: The antitumor activity of compounds was measured in mice bearing transplantable tumors. Survival or tumor size were measured and the results are expressed as the measurement made in the treated group (T) divided by the measurement made in the vehicle treated control group (C). The tumor model used in this assay is Friend Virus Leukemia (Solid) (subcutaneous) in B6D2F1 (BDF1) mice

[1] = dose: 5.0 mg/kg/injection, schedule: Q01DX011 (ip), vehicle: carboxymethylcellulose (CMC)
[2] = dose: 125.0 mg/kg/injection, schedule: Q01DX011 (ip), vehicle: carboxymethylcellulose (CMC)
[3] = dose: 250.0 mg/kg/injection, schedule: Q01DX011 (ip), vehicle: carboxymethylcellulose (CMC)
[4] = dose: 500.0 mg/kg/injection, schedule: Q01DX011 (ip), vehicle: carboxymethylcellulose (CMC)
[5] = dose: 1000.0 mg/kg/injection, schedule: Q01DX011 (ip), vehicle: carboxymethylcellulose (CMC)
[6] = dose: 20.0 mg/kg/injection, schedule: Q01DX011 (ip), vehicle: carboxymethylcellulose (CMC)
[7] = dose: 40.0 mg/kg/injection, schedule: Q01DX011 (ip), vehicle: carboxymethylcellulose (CMC)

SMILES: N[C@@H](Cc1ccc(N(CCCl)CCCl)cc1)C(=O)O
- T/C (dose: 1.25 mg/kg/injection, schedule: Q01DX011 (ip), vehicle: carboxymethylcellulose (CMC)): 84 % of control
- T/C (dose: 2.5 mg/kg/injection, schedule: Q01DX011 (ip), vehicle: carboxymethylcellulose (CMC)): 50 % of control
- T/C (dose: 3.75 mg/kg/injection, schedule: Q01DX011 (ip), vehicle: carboxymethylcellulose (CMC)): 53 % of control
- T/C (dose: 4.0 mg/kg/injection, schedule: Q01DX011 (ip), vehicle: carboxymethylcellulose (CMC)): 35 % of control
- T/C [1]: 35 % of control

SMILES: O=CCC(O)C(O)C(O)CO (configuration not stated)
- T/C [2]: 89 % of control
- T/C [3]: 83 % of control
- T/C [4]: 48 % of control
- T/C [5]: 63 % of control

SMILES: CNC(C)=O
- T/C [3]: 104 % of control
- T/C [4]: 99 % of control and 107 % of control
- T/C [5]: 75 % of control and 76 % of control

SMILES: C=CC(CN1CC1)OC(C)=O (configuration not stated)
- T/C (dose: 1.2 mg/kg/injection, schedule: Q01DX011 (ip), vehicle: carboxymethylcellulose (CMC)): 70 % of control
- T/C (dose: 2.4 mg/kg/injection, schedule: Q01DX011 (ip), vehicle: carboxymethylcellulose (CMC)): 89 % of control
- T/C (dose: 2.5 mg/kg/injection, schedule: Q01DX011 (ip), vehicle: saline): 50 % of control
- T/C (dose: 4.8 mg/kg/injection, schedule: Q01DX011 (ip), vehicle: carboxymethylcellulose (CMC)): 36 % of control
- T/C (dose: 5.0 mg/kg/injection, schedule: Q01DX011 (ip), vehicle: saline): 31 % of control
- T/C (dose: 7.5 mg/kg/injection, schedule: Q01DX011 (ip), vehicle: saline): 26 % of control
- T/C (dose: 9.9 mg/kg/injection, schedule: Q01DX011 (ip), vehicle: saline): 3 % of control

SMILES: CN(C)c1ccc2nc3ccc(=[N+](C)C)cc-3sc2c1
- T/C [1]: 278 % of control
- T/C (dose: 10.0 mg/kg/injection, schedule: Q01DX011 (ip), vehicle: carboxymethylcellulose (CMC)): 175 % of control
- T/C [6]: 171 % of control
- T/C [7]: 235 % of control

SMILES: O=C(O)C(=O)c1ccc(-c2ccccc2)cc1
- T/C (dose: 62.0 mg/kg/injection, schedule: Q01DX011 (ip), vehicle: carboxymethylcellulose (CMC)): 67 % of control
- T/C [2]: 45 % of control

SMILES: CC(=O)[C@H]1CC[C@H]2[C@@H]3C[C@H](C)C4=CC(=O)CC[C@]4(C)[C@@]3(F)[C@@H](O)C[C@]12C
- T/C (dose: 6.0 mg/kg/injection, schedule: Q01DX011 (sc), vehicle: steriod suspending solution): 163 % of control
- T/C (dose: 8.0 mg/kg/injection, schedule: Q01DX011 (sc), vehicle: steriod suspending solution): 162 % of control
- T/C (dose: 12.0 mg/kg/injection, schedule: Q01DX011 (sc), vehicle: steriod suspending solution): 151 % of control
- T/C (dose: 16.0 mg/kg/injection, schedule: Q01DX011 (sc), vehicle: steriod suspending solution): 80 % of control
- T/C (dose: 50.0 mg/kg/injection, schedule: Q01DX011 (sc), vehicle: steriod suspending solution): 66 % of control and 43 % of control
- T/C (dose: 100.0 mg/kg/injection, schedule: Q01DX011 (sc), vehicle: steriod suspending solution): 22 % of control and 47 % of control
- T/C (dose: 200.0 mg/kg/injection, schedule: Q01DX011 (sc), vehicle: steriod suspending solution): 46 % of control

SMILES: CC(C)=CC1C(C(=O)OCc2ccc(C)cc2C)C1(C)C (configuration not stated)
- T/C (dose: 87.5 mg/kg/injection, schedule: Q01DX011 (ip), vehicle: carboxymethylcellulose (CMC)): 107 % of control
- T/C (dose: 175.0 mg/kg/injection, schedule: Q01DX011 (ip), vehicle: carboxymethylcellulose (CMC)): 83 % of control
- T/C (dose: 350.0 mg/kg/injection, schedule: Q01DX011 (ip), vehicle: carboxymethylcellulose (CMC)): 53 % of control
- T/C [4]: 46 % of control

SMILES: COc1ccccc1NC(=O)CSC(N)=O
- T/C (dose: 100.0 mg/kg/injection, schedule: Q01DX011 (ip), vehicle: carboxymethylcellulose (CMC)): 91 % of control
- T/C (dose: 200.0 mg/kg/injection, schedule: Q01DX011 (ip), vehicle: carboxymethylcellulose (CMC)): 104 % of control
- T/C (dose: 400.0 mg/kg/injection, schedule: Q01DX011 (ip), vehicle: carboxymethylcellulose (CMC)): 71 % of control

SMILES: Cn1c(=O)c2[nH]c(CCCc3nc4c([nH]3)c(=O)n(C)c(=O)n4C)nc2n(C)c1=O
- T/C [6]: 101 % of control
- T/C [7]: 94 % of control
- T/C (dose: 80.0 mg/kg/injection, schedule: Q01DX011 (ip), vehicle: carboxymethylcellulose (CMC)): 44 % of control
